Source: ChEMBL document CHEMBL1144921, “14-amino, 14-alkylamino, and 14-acylamino analogs of oxymorphindole. Differential effects on opioid receptor binding and functional profiles” (J Med Chem, 2003)

Experiments:
[1] = target: T1, Kappa-type opioid receptor (Homo sapiens, UniProt P41145); assay: Percent stimulation of [35S]GTP-gamma-S, binding in recombinant human Opioid receptor kappa 1 transfected into CHO cells; assay type: functional, cell-based
Mu-type opioid receptor [2] = target: T2, Mu-type opioid receptor (Homo sapiens, UniProt P35372); assay: Stimulation of [35S]GTP-gamma-S, binding to recombinant human Opioid receptor mu 1 expressed in CHO cells; assay type: functional, cell-based
[3] = target: T3, Delta-type opioid receptor (Homo sapiens, UniProt P41143); assay: Displacement of [3H]C1-DPDPE from human recombinant Opioid receptor delta 1 on CHO cell membranes.; assay type: cell-based
[4] = target: T3, Delta-type opioid receptor; assay: Stimulation of [35S]GTP-gamma-S, binding at human recombinant Opioid receptor delta 1 transfected into CHO cells.; assay type: functional, cell-based
Mu-type opioid receptor [5] = target: T2, Mu-type opioid receptor; assay: Percent stimulation of [35S]GTP-gamma-S, binding in recombinant human mu opioid receptor transfected into CHO cells; assay type: functional, cell-based
[6] = target: T3, Delta-type opioid receptor; assay: Percent stimulation of [35S]GTP-gamma-S, binding to recombinant human Opioid receptor delta 1 expressed in CHO cells; assay type: functional, cell-based
Mu-type opioid receptor [7] = target: T2, Mu-type opioid receptor; assay: Displacement of [3H]DAMGO from human recombinant Opioid receptor mu 1 on CHO cell membranes.; assay type: cell-based
[8] = target: T1, Kappa-type opioid receptor; assay: Stimulation of […] binding at human recombinant Opioid receptor kappa 1 transfected into CHO cells.; assay type: cell-based
[9] = target: T1, Kappa-type opioid receptor; assay: Displacement of [3H]U-69593 from human recombinant Opioid receptor kappa 1 on CHO cell membranes.; assay type: cell-based
[10] = target: Opioid receptors; delta & kappa (Homo sapiens) (UniProt P41145+P41143); assay: Selectivity between kappa opioid receptor and delta opioid receptor.; assay type: functional
[11] = target: Opioid receptors; mu & delta (Homo sapiens) (UniProt P41143+P35372); assay: Selectivity between mu opioid receptor and delta opioid receptor.; assay type: functional
Mu-type opioid receptor [12] = target: T2, Mu-type opioid receptor; assay: Percent stimulation of [35S]GTP-gamma-S, binding in recombinant human Opioid receptor mu 1 transfected into CHO cells; assay type: functional, cell-based
[13] = target: T1, Kappa-type opioid receptor; assay: Percent stimulation of [35S]GTP-gamma-S, binding in recombinant human Opioid receptor kappa 1 transfected into CHO cells: Antagonist activity; assay type: functional, cell-based; settings: filed as antagonist
[14] = target: T1, Kappa-type opioid receptor; assay: Percent stimulation of […] binding in recombinant human Opioid receptor kappa 1 transfected into CHO cells: Antagonist activity; assay type: cell-based; settings: filed as antagonist

T3 sequence (P41143 whole entry): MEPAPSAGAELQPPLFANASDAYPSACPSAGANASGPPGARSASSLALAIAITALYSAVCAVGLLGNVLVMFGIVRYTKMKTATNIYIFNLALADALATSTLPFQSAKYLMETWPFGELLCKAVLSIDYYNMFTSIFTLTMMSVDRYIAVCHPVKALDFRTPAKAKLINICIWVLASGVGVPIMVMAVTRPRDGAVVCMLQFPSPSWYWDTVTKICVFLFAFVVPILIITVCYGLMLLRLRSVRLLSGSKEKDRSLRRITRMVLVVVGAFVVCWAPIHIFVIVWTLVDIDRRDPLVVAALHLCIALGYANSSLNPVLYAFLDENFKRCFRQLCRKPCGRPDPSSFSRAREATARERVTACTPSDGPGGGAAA
Chain of Opioid receptors; delta & kappa (Homo sapiens) (P41143 whole entry, looked up): as the sequence (P41143 whole entry) above
Chain of Opioid receptors; delta & kappa (Homo sapiens) (P41145 whole entry, looked up): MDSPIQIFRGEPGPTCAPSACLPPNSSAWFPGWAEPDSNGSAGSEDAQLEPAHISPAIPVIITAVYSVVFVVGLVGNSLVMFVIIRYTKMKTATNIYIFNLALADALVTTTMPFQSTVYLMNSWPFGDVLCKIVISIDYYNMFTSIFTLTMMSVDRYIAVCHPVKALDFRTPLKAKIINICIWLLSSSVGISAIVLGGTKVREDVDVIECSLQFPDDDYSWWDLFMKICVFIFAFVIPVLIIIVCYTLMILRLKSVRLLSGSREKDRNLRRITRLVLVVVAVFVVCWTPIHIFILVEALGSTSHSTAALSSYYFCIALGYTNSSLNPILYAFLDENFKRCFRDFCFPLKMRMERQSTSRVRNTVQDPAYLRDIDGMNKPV
T2 sequence (P35372 whole entry): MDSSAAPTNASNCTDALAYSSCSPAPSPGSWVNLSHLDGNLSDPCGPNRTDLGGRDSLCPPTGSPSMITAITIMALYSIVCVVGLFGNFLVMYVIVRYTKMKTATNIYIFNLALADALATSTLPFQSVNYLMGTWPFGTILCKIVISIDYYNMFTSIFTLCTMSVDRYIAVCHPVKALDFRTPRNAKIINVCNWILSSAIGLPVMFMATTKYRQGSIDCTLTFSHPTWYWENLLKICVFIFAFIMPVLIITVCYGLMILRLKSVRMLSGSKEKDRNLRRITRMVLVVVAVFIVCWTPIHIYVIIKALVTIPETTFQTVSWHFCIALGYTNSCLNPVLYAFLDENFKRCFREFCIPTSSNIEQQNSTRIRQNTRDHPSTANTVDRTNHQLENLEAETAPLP
Chain of Opioid receptors; mu & delta (Homo sapiens) (P35372 whole entry, looked up): as the sequence (P35372 whole entry) above
Chain of Opioid receptors; mu & delta (Homo sapiens) (P41143 whole entry, looked up): as the sequence (P41143 whole entry) above
T1 sequence (P41145 whole entry): as the sequence (P41145 whole entry, looked up) above

Structure (SMILES) | Stimulation [1] | EC50 (Mu-type opioid receptor [2]) | Ki [3] | EC50 [4] | Stimulation (Mu-type opioid receptor [5]) | Stimulation [6] | Ki (Mu-type opioid receptor [7]) | EC50 [8] | Ki [9] | Selectivity [10] | Selectivity [11] | Stimulation (Mu-type opioid receptor [12]) | Activity [13] | Activity [14] | Activity (Mu-type opioid receptor [12])
CN1CC[C@]23c4c5ccc(O)c4O[C@H]2c2[nH]c4ccccc4c2C[C@@]3(NCCCc2ccccc2)C1C5 | 65% | 0.0451 µM | 0.00195 µM | 0.00087 µM | 50% | 37% | 0.0102 µM | 0.0272 µM | 0.00779 µM | 4 | 5 |  |  |  | 
CN1CC[C@]23c4c5ccc(O)c4O[C@H]2c2[nH]c4ccccc4c2C[C@@]3(CCCc2ccccc2)C1C5 | 67% | 0.0215 µM | 0.0236 µM | 0.00753 µM |  | 65% | 0.00491 µM | 0.0965 µM | 0.0633 µM | 2.7 | 0.2 | 91% |  |  | 
CN1CC[C@]23c4c5ccc(O)c4O[C@H]2c2[nH]c4ccccc4c2C[C@@]3(NC(=O)CCc2ccccc2)C1C5 |  | 0.0052 µM | 0.00423 µM | 0.0014 µM |  | 72% | 0.00961 µM |  | 0.0245 µM | 5.8 | 2.3 | 27% | Antagonist |  | 
C[C@@H](NC(=O)[C@@H](N)Cc1ccc(O)cc1)C(=O)NCC(=O)N(C)[C@@H](Cc1ccccc1)C(=O)NCCO | 62% |  |  |  |  |  |  |  |  |  |  | 100% |  |  | 
CCCCCCC(=O)N[C@@]12Cc3c([nH]c4ccccc34)[C@@H]3Oc4c(O)ccc5c4[C@@]31CCN(C)C2C5 |  | 0.0514 µM | 0.0103 µM | 0.019 µM | 44% | 55% | 0.0334 µM |  | 0.409 µM | 40 | 3.2 |  | Antagonist |  | 
CN1CC[C@]23c4c5ccc(O)c4O[C@H]2c2[nH]c4ccccc4c2C[C@@]3(NC(=O)Cc2ccccc2)C1C5 | 36% | 0.095 µM | 0.00655 µM | 0.0012 µM |  | 89% | 0.0293 µM | 0.0962 µM | 0.148 µM | 23 | 4.5 | 53% |  |  | 
CN1CC[C@]23c4c5ccc(O)c4O[C@H]2c2[nH]c4ccccc4c2C[C@@]3(O)[C@H]1C5 [OXYMORPHINDOLE] |  |  | 0.00128 µM |  |  |  | 0.363 µM |  | 0.396 µM | 309 | 284 |  |  |  | 
CCCCN[C@@]12Cc3c([nH]c4ccccc34)[C@@H]3Oc4c(O)ccc5c4[C@@]31CCN(C)C2C5 | 33% | 0.272 µM | 0.00139 µM | 0.00471 µM |  | 36% | 0.0372 µM | 0.936 µM | 0.0361 µM | 26 | 27 | 40% |  |  | 
Oc1ccc2c3c1O[C@H]1c4[nH]c5ccccc5c4C[C@@]4(O)[C@@H](C2)N(CC2CC2)CC[C@]314 |  |  |  |  |  |  |  |  |  |  |  |  | Antagonist |  | 
CCN[C@@]12Cc3c([nH]c4ccccc34)[C@@H]3Oc4c(O)ccc5c4[C@@]31CCN(C)C2C5 |  | 0.184 µM | 0.00073 µM | 0.00033 µM |  | 43% | 0.0763 µM |  | 0.0638 µM | 87 | 105 | 50% |  | Antagonist | 
CN1CC[C@]23c4c5ccc(O)c4O[C@H]2c2[nH]c4ccccc4c2C[C@@]3(N)C1C5 |  | > 1 µM | 0.00288 µM | 0.0086 µM |  | 38% | 1.05 µM |  | 0.399 µM |  | 365 |  |  | Antagonist | 
CCCCC(=O)N[C@@]12Cc3c([nH]c4ccccc34)[C@@H]3Oc4c(O)ccc5c4[C@@]31CCN(C)C2C5 |  | 0.149 µM | 0.00207 µM | 0.0033 µM |  | 74% | 0.0511 µM | 0.0569 µM | 0.723 µM | 349 | 25 |  | Antagonist |  | 31%
Oc1ccc2c3c1O[C@H]1c4[nH]c5c(c4C[C@@]4(O)[C@@H](C2)N(CC2CC2)CC[C@]314)C[C@@]1(O)[C@H]2Cc3ccc(O)c4c3[C@@]1(CCN2CC1CC1)[C@H]5O4 |  |  |  |  |  |  |  |  |  |  |  |  | Antagonist |  | 
CN1CC[C@]23c4c5ccc(O)c4O[C@H]2c2[nH]c4ccccc4c2C[C@@]3(NCCc2ccccc2)C1C5 | 74% | 0.00533 µM | 0.0011 µM | 0.00095 µM |  | 33% | 0.00168 µM | 0.0164 µM | 0.0138 µM | 13 | 1.5 | 93% |  |  | 
